Six compounds from patent US9212135B2, “Phenylthioacetate compounds, compositions and methods of use” (Ardea Biosciences, Inc., priority 2010, dated 2015) can be followed below.

For the assay, the target named is T1, URAT1 (Homo sapiens, UniProt Q96S37).
T1 sequence (Q96S37 1-553): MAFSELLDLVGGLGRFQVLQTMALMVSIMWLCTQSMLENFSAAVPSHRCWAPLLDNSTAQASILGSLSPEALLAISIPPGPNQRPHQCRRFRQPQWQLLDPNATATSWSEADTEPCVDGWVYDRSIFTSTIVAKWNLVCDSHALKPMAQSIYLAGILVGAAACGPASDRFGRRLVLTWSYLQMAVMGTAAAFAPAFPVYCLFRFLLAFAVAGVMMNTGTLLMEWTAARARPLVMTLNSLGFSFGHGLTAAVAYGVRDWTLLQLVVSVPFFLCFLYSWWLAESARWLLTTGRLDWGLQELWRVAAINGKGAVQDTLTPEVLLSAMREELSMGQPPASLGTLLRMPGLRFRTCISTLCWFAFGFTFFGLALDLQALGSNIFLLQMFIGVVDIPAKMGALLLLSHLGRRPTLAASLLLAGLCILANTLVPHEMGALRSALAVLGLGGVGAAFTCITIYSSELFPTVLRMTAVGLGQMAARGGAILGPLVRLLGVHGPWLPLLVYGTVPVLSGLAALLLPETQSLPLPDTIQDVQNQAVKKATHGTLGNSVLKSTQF
Nature of the assay: URAT1-model assay (14C-uric acid transport in HEK293/URAT1-model cells). The following applies: 125 μM 14C-uric acid, 10 minutes at room temperature, read-out: URAT-1 model cell-based C14 EC50 Ranking. How it is done: HEK293 human embryonic kidney cells (ATCC# CRL-1573) were propagated in EMEM tissue culture medium as described by ATCC in an atmosphere of 5% CO2 and 95% air. Transfections of HEK293 cells with a model URAT1 construct was performed using L2000 transfection reagent (Invitrogen) as described by the manufacturer. After 24 h the transfected cells were split into 10 cm tissue culture plates and grown for 1 day after which the medium was replaced with fresh growth medium containing G418 (Gibco) at 0.5 mg/ml final concentration. Drug-resistant colonies were selected after approximately 8 days and then tested for ^14C-uric acid transport activity. The HEK293/URAT1-model cells are plated on Poly-D-Lysine Coated 96-well Plates at a density of 125,000 cells per well.
Cells were grown overnight (20-26 hours) at 37° C. in an incubator. Plates were allowed to come to room temperature and media was washed out with one wash of 250 μl of Wash Buffer (125 mM Na Gluconate, 10 mM Hepes ph 7.3). Compound or vehicle is added in assay buffer with ^14C-Uric Acid for a final concentration of 125 μM Uric Acid with a specific activity of 54 mCi/mmol. Assay Buffer is 125 mM Sodium Gluconate, 4.8 mM Potassium Gluconate, 1.2 mM Potassium phosphate, monobasic, 1.2 mM magnesium sulfate, 1.3 mM Ca Gluconate, 5.6 mM Glucose, 25 mM HEPES, pH 7.3. Plates were incubated at room temperature for 10 minutes then washed 3 times with 50 μl Wash Buffer and 3 times with 250 μl Wash Buffer. Microscint 20 Scintillation Fluid was added and plates were incubated overnight at room temperature to equilibrate. Plates are then read on the TopCount Plate Reader and an EC50 value generated. (See Enomoto et al, Nature, 2002, 417, 447-451 and Anzai et al, J. Biol. Chem., 2004, 279, 45942-45950.)
Compounds as described herein were tested according to the protocol described above for the URAT-1 model assay; the results are shown in the table below wherein: […]

`CC(C)(Sc1ccccc1-c1ccc(C(N)=O)cc1)C(=O)O` [Example 1B]: the concentration for a half-maximal effect (EC50) lay within 0.5 to 10 µM.

Consider `N#Cc1ccc(-c2cc(F)ccc2SC2(C(=O)O)CCC2)cc1` [Example 1G], for which the EC50 is 0.001 to 0.05 µM.

Regarding `CC(C)(Sc1ccccc1-c1ccc(CO)cc1)C(=O)O` [Example 1C], the concentration giving a half-maximal response (EC50) fell in the range of 0.05 to 0.5 µM.

`O=C(O)C1(Sc2ccccc2-c2ccc(CO)cc2)CCC1` [Example 1E]: the EC50 lay within 0.05 to 0.5 µM.

As to `O=C(O)C1(Sc2ccc(F)cc2-c2ccc(C3CC3)cc2)CCC1` [Example 1F], the concentration for a half-maximal effect (EC50) was in the range of 0.5 to 10 µM.

Turning to `N#Cc1ccc(-c2ccccc2SC2(C(=O)O)CCC2)cc1` [Example 1D], the half-maximal effective concentration (EC50) was 0.001 to 0.05 µM.
